According to paper PMC5218480 (PLoS ONE, 2017):

System: MV-4-11 cells
Assay: Gene expression microarray analysis (Affymetrix PrimeView) and GSEA
Format: cell-based, human
Parameters: RFU PODN (11730768_x_at) / Fold change /veh PODN (11730768_x_at) / RFU LINC00158 (11744669_a_at) / Fold change /veh LINC00158 (11744669_a_at) / RFU DUSP10 (11751237_a_at) / Fold change /veh DUSP10 (11751237_a_at) / RFU ID3 (11757404_x_at) / Fold change /veh ID3 (11757404_x_at) / RFU PLEKHG5 (11737974_s_at) / Fold change /veh PLEKHG5 (11737974_s_at) / RFU LRRC4B (11730491_at) / Fold change /veh LRRC4B (11730491_at) / RFU GIMAP4 (11747438_a_at) / Fold change /veh GIMAP4 (11747438_a_at) / RFU KRT8 (11758183_x_at) / Fold change /veh KRT8 (11758183_x_at) / RFU CNN1 (11734310_a_at) / Fold change /veh CNN1 (11734310_a_at) / RFU VPS37D (11726825_at) / Fold change /veh VPS37D (11726825_at) / RFU C10orf10 (11716522_x_at) / Fold change /veh C10orf10 (11716522_x_at) / RFU KIR2DL2 /// KIR2DL4 /// KIR2DL5A /// KIR2DL5B /// KIR2DS1 /// KIR2DS2 /// KIR2DS3 /// KIR2DS4 /// KIR3DL3 /// KIR3DL3 /// KIR3DS1 (11738374_at) / Fold change /veh KIR2DL2 /// KIR2DL4 /// KIR2DL5A /// KIR2DL5B /// KIR2DS1 /// KIR2DS2 /// KIR2DS3 /// KIR2DS4 /// KIR3DL3 /// KIR3DL3 /// KIR3DS1 (11738374_at) / RFU C1QL1 (11718748_at) / Fold change /veh C1QL1 (11718748_at) / RFU TMPRSS4 (11747572_a_at) / Fold change /veh TMPRSS4 (11747572_a_at) / RFU HAMP (11756126_x_at) / Fold change /veh HAMP (11756126_x_at) / RFU RNFT2 (11725882_a_at) / Fold change /veh RNFT2 (11725882_a_at) / RFU NR4A2 (11747474_a_at) / Fold change /veh NR4A2 (11747474_a_at) / RFU ABCC12 (11746883_a_at) / Fold change /veh ABCC12 (11746883_a_at) / RFU TMEM136 (11760407_x_at) / Fold change /veh TMEM136 (11760407_x_at) / RFU CLDN22 /// WWC2 (11732394_at) / Fold change /veh CLDN22 /// WWC2 (11732394_at) / RFU HLA-DPB1 (11760878_x_at) / Fold change /veh HLA-DPB1 (11760878_x_at) / RFU SPINT1 (11716480_a_at) / Fold change /veh SPINT1 (11716480_a_at) / RFU GAP43 (11754022_s_at) / Fold change /veh GAP43 (11754022_s_at) / RFU A4GNT (11735810_at) / Fold change /veh A4GNT (11735810_at) / RFU PRB3 (11715151_x_at) / Fold change /veh PRB3 (11715151_x_at) / RFU TUBB4B (11761932_at) / Fold change /veh TUBB4B (11761932_at) / RFU CAPN14 (11732068_a_at) / Fold change /veh CAPN14 (11732068_a_at) / RFU TMCC2 (11721928_a_at) / Fold change /veh TMCC2 (11721928_a_at) / RFU IRGQ (11745062_a_at) / Fold change /veh IRGQ (11745062_a_at) / RFU FAM174B (11720279_a_at) / Fold change /veh FAM174B (11720279_a_at) / RFU TMPRSS4 (11748680_a_at) / Fold change /veh TMPRSS4 (11748680_a_at) / RFU FAM212B (11763350_a_at) / Fold change /veh FAM212B (11763350_a_at) / RFU PLEKHG5 (11743358_a_at) / Fold change /veh PLEKHG5 (11743358_a_at) / RFU ZSCAN30 (11745921_a_at) / Fold change /veh ZSCAN30 (11745921_a_at) / RFU CMKLR1 (11741424_a_at) / Fold change /veh CMKLR1 (11741424_a_at) / RFU LOC101060620 /// MAPK8IP1 (11723275_at) / Fold change /veh LOC101060620 /// MAPK8IP1 (11723275_at) / RFU SPTSSB (11747773_x_at) / Fold change /veh SPTSSB (11747773_x_at) / RFU PRSS12 (11739890_at) / Fold change /veh PRSS12 (11739890_at) / RFU BIN1 (11741810_x_at) / Fold change /veh BIN1 (11741810_x_at) / RFU WNT11 (11732464_a_at) / Fold change /veh WNT11 (11732464_a_at) / RFU C10orf10 (11716521_a_at) / Fold change /veh C10orf10 (11716521_a_at) / RFU C5orf56 (11738089_at) / Fold change /veh C5orf56 (11738089_at) / RFU CYB561 (11721691_x_at) / Fold change /veh CYB561 (11721691_x_at) / RFU ANKRD19P (11752326_a_at) / Fold change /veh ANKRD19P (11752326_a_at) / RFU OR2T12 /// OR2T33 /// OR2T8 (11738714_s_at) / Fold change /veh OR2T12 /// OR2T33 /// OR2T8 (11738714_s_at) / RFU VCAN (11748164_a_at) / Fold change /veh VCAN (11748164_a_at) / RFU JSRP1 (11732532_at) / Fold change /veh JSRP1 (11732532_at) / RFU KRTAP10-11 (11738290_x_at) / Fold change /veh KRTAP10-11 (11738290_x_at) / RFU MYO3A (11730013_a_at) / Fold change /veh MYO3A (11730013_a_at) / RFU EBF3 (11725865_a_at) / Fold change /veh EBF3 (11725865_a_at) / RFU CAMK2N1 (11719241_x_at) / Fold change /veh CAMK2N1 (11719241_x_at) / RFU C5orf56 (11738088_a_at) / Fold change /veh C5orf56 (11738088_a_at) / RFU OLFML3 (11715873_a_at) / Fold change /veh OLFML3 (11715873_a_at) / RFU LOC100653217 /// NTM (11731650_a_at) / Fold change /veh LOC100653217 /// NTM (11731650_a_at) / RFU MAPK11 (11762145_a_at) / Fold change /veh MAPK11 (11762145_a_at) / RFU FIZ1 (11724087_x_at) / Fold change /veh FIZ1 (11724087_x_at) / RFU OASL (11726364_x_at) / Fold change /veh OASL (11726364_x_at) / RFU SOX15 (11748057_x_at) / Fold change /veh SOX15 (11748057_x_at) / RFU CD79A (11719716_a_at) / Fold change /veh CD79A (11719716_a_at) / RFU HIST1H1D (11736915_at) / Fold change /veh HIST1H1D (11736915_at) / RFU CASKIN2 (11723855_a_at) / Fold change /veh CASKIN2 (11723855_a_at) / RFU LOC730098 (11760151_x_at) / Fold change /veh LOC730098 (11760151_x_at) / RFU OR4N2 (11742367_at) / Fold change /veh OR4N2 (11742367_at) / RFU PRRT2 (11749266_a_at) / Fold change /veh PRRT2 (11749266_a_at) / RFU SNX32 (11753110_a_at) / Fold change /veh SNX32 (11753110_a_at) / RFU CDHR5 (11726645_a_at) / Fold change /veh CDHR5 (11726645_a_at) / RFU RCAN1 (11760418_a_at) / Fold change /veh RCAN1 (11760418_a_at) / RFU FAM167A (11723789_a_at) / Fold change /veh FAM167A (11723789_a_at) / RFU FAM26E (11764081_at) / Fold change /veh FAM26E (11764081_at) / RFU ISYNA1 (11749810_s_at) / Fold change /veh ISYNA1 (11749810_s_at) / RFU ACY1 (11761880_at) / Fold change /veh ACY1 (11761880_at) / RFU 11764098_at / Fold change /veh 11764098_at / RFU SAMD14 (11745864_x_at) / Fold change /veh SAMD14 (11745864_x_at) / RFU NPB (11741838_a_at) / Fold change /veh NPB (11741838_a_at) / RFU TMPRSS6 (11731388_a_at) / Fold change /veh TMPRSS6 (11731388_a_at) / RFU KRTAP10-2 (11738614_at) / Fold change /veh KRTAP10-2 (11738614_at) / RFU ARHGAP8 /// PRR5-ARHGAP8 (11727945_x_at) / Fold change /veh ARHGAP8 /// PRR5-ARHGAP8 (11727945_x_at) / RFU KRTAP5-7 /// NADSYN1 (11734609_at) / Fold change /veh KRTAP5-7 /// NADSYN1 (11734609_at) / RFU RASL12 (11751679_a_at) / Fold change /veh RASL12 (11751679_a_at) / RFU CDKN2B (11736163_a_at) / Fold change /veh CDKN2B (11736163_a_at) / RFU PRF1 (11729649_at) / Fold change /veh PRF1 (11729649_at) / RFU, ZNF638 /// ZNF638-IT1 / Fold change vs veh, ZNF638 /// ZNF638-IT1 / RFU, PANK3 / Fold change vs veh, PANK3 / RFU, SH3YL1 / Fold change vs veh, SH3YL1 / RFU, ZEB2 / Fold change vs veh, ZEB2 / RFU, NRIP1 / Fold change vs veh, NRIP1 / RFU, PTTG1IP / Fold change vs veh, PTTG1IP / RFU, CAPN2 / Fold change vs veh, CAPN2 / RFU, MED14 / Fold change vs veh, MED14 / RFU, SNORA58 / Fold change vs veh, SNORA58 / RFU, C1orf63 / Fold change vs veh, C1orf63 / RFU, LRRFIP1 / Fold change vs veh, LRRFIP1 / RFU, NDUFAF7 / Fold change vs veh, NDUFAF7 / RFU, SLC12A2 / Fold change vs veh, SLC12A2 / RFU, IBTK / Fold change vs veh, IBTK / RFU, ESF1 / Fold change vs veh, ESF1 / Fold change vs veh, TMEM50B / RFU, TAOK1 / Fold change vs veh, TAOK1 / RFU, ACBD3 / Fold change vs veh, ACBD3 / RFU, TMA16 / Fold change vs veh, TMA16 / RFU, RWDD3 / Fold change vs veh, RWDD3 / RFU, BCAT1 / Fold change vs veh, BCAT1 / RFU, EDEM3 / Fold change vs veh, EDEM3 / RFU, TMEM33 / Fold change vs veh, TMEM33 / RFU, WDR75 / Fold change vs veh, WDR75 / RFU, AHCTF1 / Fold change vs veh, AHCTF1 / RFU, TFRC / Fold change vs veh, TFRC / RFU, ZDHHC17 / Fold change vs veh, ZDHHC17 / RFU, NOM1 / Fold change vs veh, NOM1 / RFU, ARL8B / Fold change vs veh, ARL8B / RFU, ZBTB11 / Fold change vs veh, ZBTB11 / RFU, TAMM41 / Fold change vs veh, TAMM41 / RFU, KIAA1704 /// LOC100996395 / Fold change vs veh, KIAA1704 /// LOC100996395 / RFU, ING1 / Fold change vs veh, ING1 / RFU, TRMT61B / Fold change vs veh, TRMT61B / RFU, FUBP3 / Fold change vs veh, FUBP3 / RFU, TP53 / Fold change vs veh, TP53 / RFU, TNKS2 / Fold change vs veh, TNKS2 / RFU, ZFP14 / Fold change vs veh, ZFP14 / RFU, ACTR2 / Fold change vs veh, ACTR2 / RFU, PPP3R1 / Fold change vs veh, PPP3R1 / RFU, PIK3R1 / Fold change vs veh, PIK3R1 / RFU, HNRNPA1 / Fold change vs veh, HNRNPA1 / RFU, RNF170 / Fold change vs veh, RNF170 / RFU, ZNF28 / Fold change vs veh, ZNF28 / RFU, RNGTT / Fold change vs veh, RNGTT / RFU, OGT / Fold change vs veh, OGT / RFU, BRD1 / Fold change vs veh, BRD1 / RFU, MARS / Fold change vs veh, MARS / RFU, ZNF655 / Fold change vs veh, ZNF655 / RFU, FAHD1 / Fold change vs veh, FAHD1 / RFU, BDP1 / Fold change vs veh, BDP1 / RFU, LRRCC1 / Fold change vs veh, LRRCC1 / RFU, ARID1A / Fold change vs veh, ARID1A / RFU, ZNF146 / Fold change vs veh, ZNF146 / RFU, ZNF330 / Fold change vs veh, ZNF330 / RFU, GPN3 / Fold change vs veh, GPN3 / RFU, C9orf123 / Fold change vs veh, C9orf123 / RFU, N4BP2L2 / Fold change vs veh, N4BP2L2 / RFU, ARFIP1 / Fold change vs veh, ARFIP1 / RFU, FAM179B / Fold change vs veh, FAM179B / RFU, BCL10 / Fold change vs veh, BCL10 / RFU, UHRF1BP1L / Fold change vs veh, UHRF1BP1L / RFU, BET1 / Fold change vs veh, BET1 / RFU, CNOT2 / Fold change vs veh, CNOT2 / RFU, ZNF268 / Fold change vs veh, ZNF268 / Fold change vs veh, ZNF507 / RFU, DGCR2 / Fold change vs veh, DGCR2 / RFU, WDSUB1 / Fold change vs veh, WDSUB1 / Fold change vs veh, HSP90B1 /// MIR3652 / RFU, ADSS / Fold change vs veh, ADSS / RFU, GK / Fold change vs veh, GK / RFU, ZNF148 / Fold change vs veh, ZNF148 / RFU, TAF9 / Fold change vs veh, TAF9 / RFU, SLC1A5 / Fold change vs veh, SLC1A5 / RFU, SLMO2 / Fold change vs veh, SLMO2 / RFU, ABCC4 / Fold change vs veh, ABCC4 / RFU, LOC101060439 /// RAP1B / Fold change vs veh, LOC101060439 /// RAP1B / RFU, RFX7 / Fold change vs veh, RFX7 / RFU, GTPBP10 / Fold change vs veh, GTPBP10 / RFU, CNEP1R1 / Fold change vs veh, CNEP1R1 / RFU, BIVM-ERCC5 /// ERCC5 / Fold change vs veh, BIVM-ERCC5 /// ERCC5 / RFU, ILF3 / Fold change vs veh, ILF3 / RFU 11762660_at / Fold change /veh 11762660_at / RFU VCAN (11757783_s_at) / Fold change /veh VCAN (11757783_s_at) / RFU DDX43 (11728927_at) / Fold change /veh DDX43 (11728927_at) / RFU KRT8 (11758188_x_at) / Fold change /veh KRT8 (11758188_x_at) / RFU NKD1 (11759106_at) / Fold change /veh NKD1 (11759106_at) / RFU SRD5A1 (11742802_a_at) / Fold change /veh SRD5A1 (11742802_a_at) / RFU TPSAB1 /// TPSB2 (11721975_s_at) / Fold change /veh TPSAB1 /// TPSB2 (11721975_s_at) / RFU GSTM3 (11746129_a_at) / Fold change /veh GSTM3 (11746129_a_at) / RFU IL23R (11737362_x_at) / Fold change /veh IL23R (11737362_x_at) / RFU TMEM51 (11727254_a_at) / Fold change /veh TMEM51 (11727254_a_at) / RFU PIWIL2 (11732686_x_at) / Fold change /veh PIWIL2 (11732686_x_at) / RFU ORM1 (11744905_x_at) / Fold change /veh ORM1 (11744905_x_at) / RFU CCDC152 (11743942_at) / Fold change /veh CCDC152 (11743942_at) / RFU ECM1 (11717891_a_at) / Fold change /veh ECM1 (11717891_a_at) / RFU IL23R (11748794_a_at) / Fold change /veh IL23R (11748794_a_at) / RFU TNFAIP8L3 (11732012_x_at) / Fold change /veh TNFAIP8L3 (11732012_x_at) / RFU MBOAT4 (11741988_at) / Fold change /veh MBOAT4 (11741988_at) / RFU 11764193_at / Fold change /veh 11764193_at / RFU TMEM53 (11763286_at) / Fold change /veh TMEM53 (11763286_at) / RFU MAGEB2 (11727129_at) / Fold change /veh MAGEB2 (11727129_at) / RFU TMEM200A (11744735_a_at) / Fold change /veh TMEM200A (11744735_a_at) / RFU CCDC152 (11751479_a_at) / Fold change /veh CCDC152 (11751479_a_at) / RFU FAM211A (11726209_a_at) / Fold change /veh FAM211A (11726209_a_at) / RFU RGS16 (11746705_a_at) / Fold change /veh RGS16 (11746705_a_at) / RFU VCAN (11755009_s_at) / Fold change /veh VCAN (11755009_s_at) / RFU RHOB (11743442_s_at) / Fold change /veh RHOB (11743442_s_at) / RFU RGS16 (11720943_a_at) / Fold change /veh RGS16 (11720943_a_at) / RFU RGS16 (11720944_at) / Fold change /veh RGS16 (11720944_at) / RFU, VPS4B / Fold change vs veh, VPS4B / RFU, CREB1 / Fold change vs veh, CREB1 / RFU, DNAJC13 / Fold change vs veh, DNAJC13 / RFU, GNAQ / Fold change vs veh, GNAQ / RFU, CDK5R1 / Fold change vs veh, CDK5R1 / RFU, ZRANB3 / Fold change vs veh, ZRANB3 / RFU, CUL4A / Fold change vs veh, CUL4A / RFU, CCNY / Fold change vs veh, CCNY / RFU, UFL1 / Fold change vs veh, UFL1 / RFU, COG3 / Fold change vs veh, COG3 / RFU, DIAPH2 / Fold change vs veh, DIAPH2 / RFU, SKA2 / Fold change vs veh, SKA2 / RFU, AFF3 / Fold change vs veh, AFF3 / RFU, LMF1 / Fold change vs veh, LMF1 / RFU, IPO11 / Fold change vs veh, IPO11 / RFU, DFFB / Fold change vs veh, DFFB / RFU, FOXP1 / Fold change vs veh, FOXP1 / RFU, CARD8 / Fold change vs veh, CARD8 / RFU, STRN3 / Fold change vs veh, STRN3 / RFU, ADK / Fold change vs veh, ADK / RFU, RASSF2 / Fold change vs veh, RASSF2 / RFU, WIPF1 / Fold change vs veh, WIPF1 / RFU, LARP1B / Fold change vs veh, LARP1B / RFU, RASA1 / Fold change vs veh, RASA1 / RFU, RB1 / Fold change vs veh, RB1 / RFU, PPFIA1 / Fold change vs veh, PPFIA1 / RFU, MAT2A / Fold change vs veh, MAT2A / RFU, CCT5 / Fold change vs veh, CCT5 / RFU, WDR92 / Fold change vs veh, WDR92 / RFU, CUX1 / Fold change vs veh, CUX1 / RFU, TTC7A / Fold change vs veh, TTC7A / RFU, TMEM135 / Fold change vs veh, TMEM135 / RFU, DEPTOR / Fold change vs veh, DEPTOR / RFU, CPM / Fold change vs veh, CPM / RFU, DNAJB6 / Fold change vs veh, DNAJB6 / RFU, CACNA2D3 / Fold change vs veh, CACNA2D3 / RFU, DTX4 / Fold change vs veh, DTX4 / RFU, TFCP2 / Fold change vs veh, TFCP2 / RFU, GMCL1 /// GMCL1P1 / Fold change vs veh, GMCL1 /// GMCL1P1 / RFU, AEBP2 / Fold change vs veh, AEBP2 / RFU, SNHG1 /// SNORD22 /// SNORD25 /// SNORD26 /// SNORD27 /// SNORD28 /// SNORD29 /// SNORD31 / Fold change vs veh, SNHG1 /// SNORD22 /// SNORD25 /// SNORD26 /// SNORD27 /// SNORD28 /// SNORD29 /// SNORD31 / Fold change (Aza/veh), C12orf56 (ProbeSet 11735607_a_at) / Fold change (ACY-1035/veh), C12orf56 (ProbeSet 11735607_a_at) / Fold change (Aza/veh), FGFR1OP (ProbeSet 11751329_s_at) / Fold change (ACY-1035/veh), FGFR1OP (ProbeSet 11751329_s_at) / Fold change (Aza/veh), VPS36 (ProbeSet 11739960_a_at) / Fold change (ACY-1035/veh), VPS36 (ProbeSet 11739960_a_at) / RFU SYPL1 (11715823_x_at) / Fold change /veh SYPL1 (11715823_x_at) / RFU IGFBP7 (11715501_s_at) / Fold change /veh IGFBP7 (11715501_s_at) / RFU REEP3 (11722064_at) / Fold change /veh REEP3 (11722064_at) / RFU IGLL1 (11728026_x_at) / Fold change /veh IGLL1 (11728026_x_at): dose or concentration left out as unconfirmed
Conditions: ProbeSet 11733176_x_at; LIST B

`Nc1ccc(-c2cccs2)cc1NC(=O)c1ccc2c(c1)cc(C1CC1)n2CCN1CCOCC1` [ACY-1035] was tested, and the “Fold change vs veh, ZNF507” value was 0.90.
